Source: ChEMBL document CHEMBL5346873, “Strategic modification of low-activity natural antimicrobial peptides confers antibacterial potential in vitro and in vivo” (Eur J Med Chem, 2023)
The source made the active and inactive calls. No cut-off for these calls is given here.

Experiments:
[1] = tested on: Pseudomonas aeruginosa; assay: Additive antibacterial activity against Pseudomonas aeruginosa assessed as meropenem MIC by checkerboard microtiter plate assay; format: functional
[2] = tested on: Vibrio vulnificus; assay: Antibacterial activity against Vibrio vulnificus 204 in presence of human serum; format: functional, organism-based
[3] = tested on: Vibrio vulnificus; assay: Antibacterial activity against Vibrio vulnificus treated with preheated compounds; format: functional, organism-based
[4] = tested on: Vibrio vulnificus; assay: Bactericidal activity against Vibrio vulnificus V1 incubated overnight; format: functional
[5] = tested on: Streptococcus agalactiae; assay: Bactericidal activity against Streptococcus agalactiae incubated overnight; format: functional
[6] = tested on: Vibrio vulnificus; assay: Antibacterial activity against Vibrio vulnificus V2 incubated for 16 to 20 hrs; format: functional; conditions: time 16-20 hrs
[7] = tested on: Streptococcus agalactiae; assay: Synergistic antibacterial activity against Streptococcus agalactiae assessed as fractional inhibitory concentration in presence of meropenem by checkerboard microtiter plate assay; format: functional
[8] = tested on: Salmonella enterica; assay: Antibacterial activity against Salmonella enterica incubated for 16 to 20 hrs; format: functional; conditions: time 16-20 hrs
[9] = tested on: Vibrio alginolyticus; assay: Bactericidal activity against Vibrio alginolyticus incubated overnight; format: functional
[10] = Cytotoxicity against human HaCaT cells incubated for 24 hrs by alamar blue assay; format: toxicity, cell-based; conditions: read-out: LD50
[11] = tested on: Klebsiella pneumoniae; assay: Synergistic antibacterial activity against Klebsiella pneumoniae expressing NDM1 in presence of doxycycline by checkerboard microtiter plate assay; format: functional
[12] = tested on: Salmonella typhimurium; assay: Bactericidal activity against Salmonella typhimurium incubated overnight; format: functional, Salmonella enterica subsp. enterica serovar Typhimurium; conditions: Salmonella enterica
[13] = tested on: Edwardsiella tarda; assay: Antibacterial activity against Edwardsiella tarda incubated for 16 to 20 hrs; format: functional; conditions: time 16-20 hrs
[14] = Cytotoxicity against human HaCaT cells incubated for 24 hrs by LDH assay; format: toxicity, cell-based; conditions: read-out: LD50
[15] = tested on: Pseudomonas aeruginosa; assay: Antibacterial activity against Pseudomonas aeruginosa incubated for 16 to 20 hrs; format: functional; conditions: time 16-20 hrs
[16] = tested on: Vibrio vulnificus; assay: Synergistic antibacterial activity against Vibrio vulnificus assessed as fractional inhibitory concentration in presence of doxycycline by checkerboard microtiter plate assay; format: functional
[17] = tested on: Streptococcus iniae; assay: Additive antibacterial activity against Streptococcus iniae assessed as meropenem MIC by checkerboard microtiter plate assay; format: functional
[18] = tested on: Candida tropicalis; assay: Fungicidal activity against Candida tropicalis incubated overnight; format: functional
[19] = tested on: Cell membrane; assay: Induction of membrane deformation in Vibrio vulnificus at 1 to 2 times MIC incubated for 30 mins by SEM analysis; format: subcellular
[20] = tested on: Aeromonas hydrophila; assay: Antibacterial activity against Aeromonas hydrophila incubated for 16 to 20 hrs; format: functional; conditions: time 16-20 hrs
[21] = tested on: Streptococcus agalactiae; assay: Antibacterial activity against Streptococcus agalactiae incubated for 16 to 20 hrs; format: functional; conditions: time 16-20 hrs
[22] = tested on: Klebsiella pneumoniae; assay: Synergistic antibacterial activity against Klebsiella pneumoniae expressing NDM1 assessed as fractional inhibitory concentration in presence of doxycycline by checkerboard microtiter plate assay; format: functional
[23] = tested on: Streptococcus iniae; assay: Synergistic antibacterial activity against Streptococcus iniae in presence of doxycycline by checkerboard microtiter plate assay; format: functional
[24] = tested on: Vibrio vulnificus; assay: Antibacterial activity against Vibrio vulnificus 204 assessed as LPS neutralization at 0.25 to 2 times MIC measured after 1 hr by LAL assay; format: functional, organism-based
[25] = tested on: Acinetobacter baumannii; assay: Additive antibacterial activity against Acinetobacter baumannii assessed as meropenem MIC by checkerboard microtiter plate assay; format: functional
[26] = tested on: Klebsiella aerogenes; assay: Antibacterial activity against Enterobacter aerogenes incubated for 16 to 20 hrs; format: functional; conditions: time 16-20 hrs
[27] = tested on: Vibrio vulnificus; assay: Antibiofilm activity against Vibrio vulnificus V2 assessed as inhibition of biofilm formation at 50 to 100 ug/ml incubated for 24 hrs by crystal violet staining based assay; format: functional, organism-based; conditions: dose 50-100 µg/ml
[28] = tested on: Vibrio harveyi; assay: Bactericidal activity against Vibrio harveyi incubated overnight; format: functional
[29] = tested on: Vibrio vulnificus; assay: Antibacterial activity against Vibrio vulnificus in presence of 0.1 ug/ml pepsin; format: functional, organism-based
[30] = tested on: Klebsiella pneumoniae; assay: Bactericidal activity against NDM Klebsiella pneumoniae incubated overnight; format: functional
[31] = tested on: Vibrio vulnificus; assay: Antibiofilm activity against Vibrio vulnificus 204 assessed as inhibition of biofilm formation at 25 ug/ml incubated for 24 hrs by crystal violet staining based assay; format: functional, organism-based; conditions: dose 25.0 µg/ml
[32] = tested on: Acinetobacter baumannii; assay: Antibacterial activity against Acinetobacter baumannii; format: functional
[33] = tested on: Candida tropicalis; assay: Antifungal activity against Candida tropicalis incubated for 16 to 20 hrs; format: functional; conditions: time 16-20 hrs
[34] = tested on: Streptococcus iniae; assay: Additive antibacterial activity against Streptococcus iniae assessed as fractional inhibitory concentration in presence of meropenem by checkerboard microtiter plate assay; format: functional
[35] = tested on: Vibrio vulnificus; assay: Antibacterial activity against Vibrio vulnificus 204 assessed as induction of resistance development by measuring fold increase in MIC measured after 15 passages; format: functional
[36] = tested on: Staphylococcus haemolyticus; assay: Antibacterial activity against Staphylococcus haemolyticus incubated for 16 to 20 hrs; format: functional; conditions: time 16-20 hrs
[37] = tested on: Pseudomonas aeruginosa; assay: Bactericidal activity against Pseudomonas aeruginosa incubated overnight; format: functional
[38] = tested on: Cell membrane; assay: Induction of membrane depolarization in Vibrio vulnificus at 100 ug/ml by DiBAC4(3) dye based fluorescence analysis; format: subcellular; conditions: dose 100.0 µg/ml
[39] = tested on: Acinetobacter baumannii; assay: Additive antibacterial activity against Acinetobacter baumannii assessed as fractional inhibitory concentration in presence of meropenem by checkerboard microtiter plate assay; format: functional
[40] = tested on: Klebsiella oxytoca; assay: Bactericidal activity against Klebsiella oxytoca incubated overnight; format: functional
[41] = tested on: Streptococcus iniae; assay: Synergistic antibacterial activity against Streptococcus iniae assessed as fractional inhibitory concentration in presence of doxycycline by checkerboard microtiter plate assay; format: functional
[42] = tested on: Vibrio vulnificus; assay: Antibacterial activity against Vibrio vulnificus 204 incubated for 16 to 20 hrs; format: functional; conditions: time 16-20 hrs
[43] = tested on: Vibrio vulnificus; assay: Antibiofilm activity against Vibrio vulnificus V2 assessed as inhibition of biofilm formation at 25 ug/ml incubated for 24 hrs by crystal violet staining based assay; format: functional, organism-based; conditions: dose 25.0 µg/ml
[44] = tested on: Vibrio alginolyticus; assay: Antibacterial activity against Vibrio alginolyticus incubated for 16 to 20 hrs; format: functional; conditions: time 16-20 hrs
[45] = tested on: Nakaseomyces glabratus; assay: Antifungal activity against Candida glabrata incubated for 16 to 20 hrs; format: functional; conditions: time 16-20 hrs
[46] = Dermal toxicity in BALB/c mouse assessed as irritation at 125 mg/kg, TOPp measured after 48 hrs; format: organism-based; conditions: in vivo, topical_or_ocular
[47] = tested on: Nakaseomyces glabratus; assay: Fungicidal activity against Candida glabrata incubated overnight; format: functional
[48] = tested on: Streptococcus agalactiae; assay: Synergistic antibacterial activity against Streptococcus agalactiae in presence of meropenem by checkerboard microtiter plate assay; format: functional
[49] = tested on: Klebsiella aerogenes; assay: Synergistic antibacterial activity against Enterobacter aerogenes assessed as fractional inhibitory concentration in presence of meropenem by checkerboard microtiter plate assay; format: functional
[50] = tested on: Vibrio vulnificus; assay: Bactericidal activity against Vibrio vulnificus V3 incubated overnight; format: functional
[51] = tested on: Vibrio vulnificus; assay: Antibacterial activity against Vibrio vulnificus V1 incubated for 16 to 20 hrs; format: functional; conditions: time 16-20 hrs
[52] = tested on: Vibrio harveyi; assay: Antibacterial activity against Vibrio harveyi incubated for 16 to 20 hrs; format: functional; conditions: time 16-20 hrs
[53] = tested on: Vibrio vulnificus; assay: Antibacterial activity against Vibrio vulnificus in presence of 10 ug/ml proteinase K; format: functional, organism-based
[54] = tested on: Escherichia coli; assay: Bactericidal activity against Escherichia coli incubated overnight; format: functional
[55] = tested on: Streptococcus agalactiae; assay: Synergistic antibacterial activity against Streptococcus agalactiae in presence of doxycycline by checkerboard microtiter plate assay; format: functional
[56] = Dermal toxicity in BALB/c mouse assessed as morphological changes at 125 mg/kg, TOPp measured after 48 hrs; format: organism-based; conditions: in vivo, topical_or_ocular
[57] = tested on: Acinetobacter baumannii; assay: Synergistic antibacterial activity against Acinetobacter baumannii assessed as doxycycline MIC by checkerboard microtiter plate assay; format: functional
[58] = tested on: Staphylococcus haemolyticus; assay: Bactericidal activity against Staphylococcus haemolyticus incubated overnight; format: functional
[59] = tested on: Streptococcus iniae; assay: Antibacterial activity against Streptococcus iniae incubated for 16 to 20 hrs; format: functional; conditions: time 16-20 hrs
[60] = tested on: Pseudomonas aeruginosa; assay: Additive antibacterial activity against Pseudomonas aeruginosa assessed as fractional inhibitory concentration in presence of meropenem by checkerboard microtiter plate assay; format: functional

Substance: H-KKCIAKAILKKAKKLLKKLVNP-OH
- MIC [1]: 0.195 µg/mL
- Activity [2]: Active
- Activity [3]: Active
- MBC [4]: 12.5 µg/mL
- MBC [5]: 3.12 µg/mL
- MIC [6]: 12.5 µg/mL
- FIC [7]: 0.07
- MIC [8]: 12.5 µg/mL
- MBC [9]: 6.25 µg/mL
- CC50 at 24 h [10]: > 100 µg/mL
- MIC [11]: 3.12 µg/mL
- MBC [12]: 100 µg/mL
- MIC [13]: > 100 µg/mL
- CC50 at 24 h [14]: > 100 µg/mL
- MIC [15]: 25 µg/mL
- FIC [16]: 0.14
- MIC [17]: 0.195 µg/mL
- MFC [18]: > 100 µg/mL
- Activity [19]: Active
- MIC [20]: > 100 µg/mL
- MIC [21]: 3.12 µg/mL
- FIC [22]: 0.37
- MIC [23]: 0.048 µg/mL
- Activity [24]: inactive
- MIC [25]: 0.195 µg/mL
- MIC [26]: 12.5 µg/mL
- Activity [27]: Active
- MBC [28]: 25 µg/mL
- Activity [29]: Active
- MBC [30]: 25 µg/mL
- Activity [31]: inactive
- MIC [32]: 3.12 µg/mL
- MIC [33]: 100 µg/mL
- FIC [34]: 0.51
- fold change (FC) [35]: <2
- MIC [36]: < 1.56 µg/mL
- MBC [37]: 50 µg/mL
- Activity [38]: Active
- FIC [39]: 0.51
- MBC [40]: 50 µg/mL
- FIC [41]: 0.04
- MIC [42]: 6.25 µg/mL
- Activity [43]: inactive
- MIC [44]: 3.12 µg/mL
- MIC [45]: > 100 µg/mL
- Activity [46]: Non-Toxic
- MFC [47]: > 100 µg/mL
- MIC [48]: 0.195 µg/mL
- FIC [49]: 0.14
- MBC [50]: 12.5 µg/mL
- MIC [51]: 12.5 µg/mL
- MIC [52]: 25 µg/mL
- Activity [53]: inactive
- MBC [54]: 12.5 µg/mL
- MIC [55]: 0.195 µg/mL
- Activity [56]: Non-Toxic
- MIC [57]: 0.003 µg/mL
- MBC [58]: < 1.56 µg/mL
- MIC [59]: < 1.56 µg/mL
- FIC [60]: 0.53
